Blank lines part the entries; values can stand above or below the molecule they belong to.
What was measured:
[1] = system: LPS-stimulated pulp fibroblasts; assay: TNF-α, IL-8 and IL-10 production by LPS-stimulated pulp fibroblasts (ELISA); type: cell-based, human
Method: Human pulp fibroblasts were obtained from human third molar germ tissue extracted for orthodontic reasons (Dental School, Strasbourg). These tissues were used with the patient's informed consent and approval by the Research Ethics Committee. Human pulp fibroblasts and mouse embryo fibroblasts (NIH 3T3, a gift of IGBMC, Strasbourg, France) were cultured in Dulbecco's modified Eagle's medium (D-MEM®) containing 1% antimicotic solution and 10% FBS (Life Technologies, Paisley, UK). The cultures were incubated at 37° C. in a humidified atmosphere of 5% CO2. When the cells reached sub-confluence, they were harvested with trypsin and sub-cultured. The fibroblast cultures used for all experiments were from passages three to six. Fibroblasts (5×10^5) were seeded in 24-well plates (Nunc, CML, Nemours, France) and incubated with LPS (10 ng·mL^−1) from E, coli in the presence or absence of free α-MSH or PGA-Q-MSH coupled peptides, in D-MEM® without FBS. At different time-points of incubation, cells were centrifuged and the levels of TNF-α, IL-10 or IL-8 in cell-free supernatants were determined using commercially available ELISA kits (Endogen, Woburn, Mass.). Studies of the effects of multilayer films consisting of PGA-α-MSH coupled peptides were conducted by seeding 5×10^5 cells directly onto the film in a 24-well plate as previously described (Chluba et al. Biomacromolecules. 2001, 2:800-805). All experiments were performed at least three times. […]

pulp fibroblasts [2] = type: cell-based, human
Method: (§1) Cell viability was determined by trypan blue exclusion. Cell proliferation was measured by the acid phosphatase method. Briefly, cells were washed with […] PBS. The buffer added to each well contains 0.1 M sodium acetate (pH 5.5), 0.1% of X-100 Triton and 10 mM of p-nitrophenyl phosphate [pNPP] (Sigma, St Quentin, France). After a 3 h-incubation at 37° C. with 5% 002 the reaction was stopped by the addition of 1 N sodium hydroxide and the absorbance was measured by spectrophotometer at 405 nm (Labsystems, iEMS Reader MF, Gibco). Cell viability and proliferation were measured at 24 and 96 hours. Cell spreading and adhesion were observed by confocal microscopy. AlamarBlue® (Serotec) was used to assess cellular proliferation. The AlamarBlue test is a non-toxic, water-soluble, calorimetric redox indicator that changes color in response to cell metabolism. […] After 6 hours, […] of incubation media was transferred to 96-well plates and measured at 590 nm and 630 nm in order to determine the percentage of AlamarBlue reduction. The ability of free α-MSH and PGA-α-MSH to promote proliferation and/or adhesion of fibroblasts was also determined. Cell viability was determined by trypan blue exclusion and the proliferation was measured by the acidic phosphatase method (FIG. 4).

pulp fibroblasts [3] = assay: Cell proliferation by the acid phosphatase method; type: cell-based, human; conditions: in solution, FIG. 4 lower part
Method: as §1

pulp fibroblasts [4] = assay: Pulp fibroblast adhesion by confocal microscopy; type: cell-based, human; conditions: 2 days of culture; FIG. 5
Method: Cell spreading and adhesion were observed by confocal microscopy. […] In this study, 5×10^4 pulp fibroblasts were seeded on the top of LbL-coated 14 mm-diameter coverslips (n=3) placed on 24-well plates. […] After 2 days of proliferation, cells were fixed with 4% PFA during 1 hour, permeabilized with 0.1% Triton X-100 for 1 hour and incubated for 20 min with Alexa Fluor 546-conjugated phalloidin (Molecular Probes) for F-actin labeling and 5 min with 200 nM DAPI (Sigma) for nuclear staining. Cells were mounted on microscope slides using Vectashield (Vector) and imaged by confocal microscopy (Zeiss, LSM 510). CLSM observations were documented with a Zeiss LSM 510 microscope using a ×40/1.4 oil immersion objective at 0.4 μm z-section intervals. FITC fluorescence was detected after excitation at 488 nm with a cutoff dichroic mirror 488 nm and an emission band-pass filter 505-530 nm (green). All experiments were performed with cells in solution.

[5] = target: MCR receptors (melanocortin receptors) on human pulp fibroblasts; assay: cell-based or functional assay
pulp fibroblasts [6] = assay: Intracellular cAMP accumulation in pulp fibroblasts; type: cell-based, human; conditions: 30 min; forskolin 3 μM, MTII 10 μg·mL-1; basal level 239±36 fmol/well
Method: Pulp fibroblasts (1×10^5) were plated in 24-well-plates in D-MEM® containing 1% antimicotic solution and 10% FBS (Life Technologies, Paisley, UK). The cultures were incubated at 37° C. in a humidified atmosphere of 5% CO2, and allowed to adhere for 2 h. Cells were then washed and incubated with […] Forskolin (positive control), the MC3/4R agonist MTII (10 μg·mL^−1), the MC1R agonist MS05 (10 μg·mL^−1), and PGA-α-MSH (10-300 μg·mL^−1) in the presence of 1 mM isobutylmethylxantine in serum-free medium and incubated for 30 min at 37° C. in a humidified atmosphere of 5% CO2. A non-treated group incubated in serum-free medium alone served as a negative control. Cell supernatants were then removed and the cells were lysed. Intracellular cAMP was quantified using a commercially available enzyme immunoassay kit and a standard curve constructed with 0-3200 fmol μg·mL-1 cAMP (Amersham Bioscience, Little Chalfont, U.K).

Molecule: HS—CH2CH2-Ser-Tyr-Ser-Nle-Glu-His-D-Phe-Arg-Trp-Gly-Lys-Pro-Val-COOH [α-MSH]
LPS-induced IL-8 secretion ([1]; 100 μg·mL^−1, 6 h time period): no inhibition
IL-10 production by LPS-stimulated pulp fibroblasts ([1]; LPS 10 ng mL^−1, 100 μg·mL-1 peptide, late (4 hours)): induced significant levels
amount of IL-8 produced (LPS-stimulated) ([1]; concentration increased to 400 μg·mL-1, data not shown): did not change
LPS induced TNF-α secretion ([1]; early timepoints (20 min to 2 h), LPS 10 ng mL^−1, 100 μg·mL-1 peptide): significantly inhibited
LPS induced TNF-α secretion ([1]; later time-points (4-6 h), LPS 10 ng mL^−1, 100 μg·mL-1 peptide): this effect was lost
viability of pulp fibroblasts (pulp fibroblasts [2]): not the viability
proliferation of pulp fibroblasts (pulp fibroblasts [3]): inhibits the proliferation
proliferation of pulp fibroblasts (pulp fibroblasts [3]; listed as free α-MSH): without effect
adhesion of pulp fibroblasts (pulp fibroblasts [4]): without effect

intracellular cAMP accumulation in pulp fibroblasts, 30 min [5]: 459 fmol/well
Molecule: MTII (peptide)

Molecule: MTII
cAMP concentration (pulp fibroblasts [6]): 459±14 fmol/well

Molecule: C=C[C@@]1(C)CC(=O)[C@]2(O)[C@@]3(C)[C@@H](O)CCC(C)(C)[C@@H]3[C@H](O)[C@H](OC(C)=O)[C@@]2(C)O1 [forskolin, Forskolin]
cAMP concentration (pulp fibroblasts [6]): 3367±242 fmol/well

— patent publication US20140050773A1, “COMPOUND COMPRISING ALPHA-MSH FOR USE IN ENDODONTIC REGENERATION” (Universite De Strasbourg, priority 2010, published 2014)
